Results as given in patent publication US9663496B2, “AMPK-activating heterocyclic compounds and methods for using the same” (Rigel Pharmaceuticals, Inc., priority 2010, dated 2017).

biological target: AMPK; experiment: AMPK activation, enzyme-linked immunosorbent assay; assay type: biochemical; settings: EC50 for AMPK activation, ELISA
Procedure, shortened: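 Activation by each compound is measured using a conventional commercial immunoassay kit.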

`CS(=O)(=O)c1ccc(Oc2ccc(NC(=O)c3ccc(C(=O)N4CCC(C(=O)c5ccc(F)cc5F)CC4)nc3)cn2)cc1` [Compound 466, 6-(4-(2,4-difluorobenzoyl)piperidine-1-carbonyl)-N-(6-(4-(methylsulfonyl)phenoxy)pyridin-3-yl)nicotinamide] and `O=C(Nc1ccc(Oc2ccc(F)cc2)nc1)c1ccc(C(=O)N2CCC(C(=O)c3ccc(N4CCCC4)cc3)CC2)cn1` [Compound 368, N-(6-(4-fluorophenoxy)pyridin-3-yl)-5-(4-(4-(pyrrolidin-1-yl)benzoyl)piperidine-1-carbonyl)picolinamide] cannot be ordered by EC50: under 500 nM for the first, under 500 nM for the second.

Compared with `N#Cc1ccc(CN2CCC(NC(=O)c3ccc(C(=O)NC4CCN(Cc5ccc(C#N)cc5)CC4)nn3)CC2)cc1` [Compound 386, N3,N6-bis(1-(4-cyanobenzyl)piperidin-4-yl)pyridazine-3,6-dicarboxamide], `COc1ccc(C(=O)C2CCN(C(=O)c3ccc(C(=O)NC4CCN(Cc5ccc(C#N)cc5)CC4)nn3)CC2)cc1` [Compound 387, N-(1-(4-cyanobenzyl)piperidin-4-yl)-6-(4-(4-methoxybenzoyl)piperidine-1-carbonyl)pyridazine-3-carboxamide] is lower in EC50: over 10000 nM for the first, under 500 nM for the second.

First: CC(=O)c1ccc(Oc2ccc(NC(=O)c3ccc(C(=O)N4CCC(Oc5ccc(C(=O)N(C)C)cc5)CC4)nc3)cn2)cc1 [Compound 488, N-(6-(4-acetylphenoxy)pyridin-3-yl)-6-(4-(4-(dimethylcarbamoyl)phenoxy)piperidine-1-carbonyl)nicotinamide]
Second: COc1ccc(C(=O)C2CCN(C(=O)c3ccc(C(=O)NC4CCN(Cc5ccc(NC(C)=O)cc5)CC4)cn3)CC2)cc1 [Compound 401, N-(1-(4-acetamidobenzyl)piperidin-4-yl)-6-(4-(4-methoxybenzoyl)piperidine-1-carbonyl)nicotinamide]
The EC50 of the first is lower: under 500 nM for the first, 1000 to 5000 nM for the second. The first is the more potent here.

Compared with `N#Cc1ccc(CN2CCC(NC(=O)c3ccc(C(=O)N4CCCCC4Cc4ccc(F)cc4)cn3)CC2)cc1` (stereo not drawn) [Compound 153, N-(1-(4-cyanobenzyl)piperidin-4-yl)-5-(2-(4-fluorobenzyl)piperidine-1-carbonyl)picolinamide], `N#Cc1ccc(CN2CCC(NC(=O)c3ccc(C(=O)N4CC(OCc5ccc(F)cc5)C4)cn3)CC2)cc1` [Compound 307, N-(1-(4-cyanobenzyl)piperidin-4-yl)-5-(3-(4-fluorobenzyloxy)azetidine-1-carbonyl)picolinamide] is lower in EC50: 1000 to 5000 nM for the first, 500 to 1000 nM for the second.

`COc1ccc(C(=O)C2CCN(C(=O)c3ccc(C(=O)N[C@H]4CC[C@@H](Oc5ccc(C#N)cc5)CC4)nc3)CC2)cc1` [Compound 171, N-((cis)-4-(4-cyanophenoxy)cyclohexyl)-5-(4-(4-methoxybenzoyl)piperidine-1-carbonyl)picolinamide] and `COc1ccc(C(=O)C2CCN(C(=O)c3ccc(C(=O)NC4CCN(Cc5ccc(N6CCCC6)cc5)CC4)nc3)CC2)cc1` [Compound 194, 5-(4-(4-methoxybenzoyl)piperidine-1-carbonyl)-N-(1-(4-(pyrrolidin-1-yl)benzyl)piperidin-4-yl)picolinamide] cannot be ordered by EC50: under 500 nM for the first, under 500 nM for the second.

`CN1CCN(c2ccc(C(=O)C3CCN(C(=O)c4cnc(C(=O)NC5CCN(Cc6ccc(C#N)cc6)CC5)cn4)CC3)cc2)CC1` [Compound 220, N-(1-(4-cyanobenzyl)piperidin-4-yl)-5-(4-(4-(4-methylpiperazin-1-yl)benzoyl)piperidine-1-carbonyl)pyrazine-2-carboxamide] and `N#Cc1ccc(CN2CCC(NC(=O)c3ccc(C(=O)N4CCC(C(=O)c5ccc(F)c(F)c5)CC4)cn3)CC2)cc1` [Compound 281, N-(1-(4-cyanobenzyl)piperidin-4-yl)-5-(4-(3,4-difluorobenzoyl)piperidine-1-carbonyl)picolinamide] cannot be ordered by EC50: under 500 nM for the first, under 500 nM for the second.

First: O=C(c1cccc(C(=O)N2CCN(Cc3ccc(F)cc3)CC2)n1)N1CCN(CCc2ccccc2)CC1 [Compound 93, (4-(4-fluorobenzyl)piperazin-1-yl)(6-(4-phenethylpiperazine-1-carbonyl)pyridin-2-yl)methanone]
Second: O=C(c1ccc(C(=O)N2CCN(Cc3ccccc3)CC2)nc1)N1CCN(Cc2ccccc2)CC1 [Compound 73, pyridine-2,5-diylbis((4-benzylpiperazin-1-yl)methanone)]
The EC50 of the first is higher: over 10000 nM for the first, 5000 to 10000 nM for the second. The second is the more potent here.

First: CC(C)(C)C(=O)N1CCN(C(=O)c2ccc(C(=O)NC3CCN(Cc4ccc(C#N)cc4)CC3)nc2)CC1 [Compound 81, N-(1-(4-cyanobenzyl)piperidin-4-yl)-5-(4-pivaloylpiperazine-1-carbonyl)picolinamide]
Second: N#Cc1ccc(CN2CCC(NC(=O)c3ccc(C(=O)N4CCC(Oc5ccncc5)CC4)cn3)CC2)cc1 [Compound 269, N-(1-(4-cyanobenzyl)piperidin-4-yl)-5-(4-(pyridin-4-yloxy)piperidine-1-carbonyl)picolinamide]
The EC50 of the first is higher: 500 to 1000 nM for the first, under 500 nM for the second. The second is the more potent here.

First: O=C(c1ccc(C(=O)N2CCN(Cc3ccc(F)cc3)CC2)nc1)N1CCN(Cc2ccc(F)cc2)CC1 [Compound 3, pyridine-2,5-diylbis((4-(4-fluorobenzyl)piperazin-1-yl)methanone)]
Second: N#Cc1ccc(CC2CCC(NC(=O)c3cccc(C(=O)N4CCN(Cc5ccc(F)cc5)CC4)n3)CC2)cc1 (stereo not drawn) [Compound 99, N-(4-(4-cyanobenzyl)cyclohexyl)-6-(4-(4-fluorobenzyl)piperazine-1-carbonyl)picolinamide]
The EC50 of the first is lower: 500 to 1000 nM for the first, 5000 to 10000 nM for the second.

Compared with `N#Cc1ccc(CN2CCC(NC(=O)c3ccc(C(=O)N4CCC(Oc5ccc(NS(=O)(=O)C6CC6)cc5)CC4)nc3)CC2)cc1` [Compound 448, N-(1-(4-cyanobenzyl)piperidin-4-yl)-6-(4-(4-(cyclopropanesulfonamido)phenoxy)piperidine-1-carbonyl)nicotinamide], `CS(=O)(=O)c1ccc(CN2CCC(NC(=O)c3ccc(C(=O)N4CCC(Oc5ccc(C#N)cc5)CC4)nc3)CC2)cc1` [Compound 214, 6-(4-(4-cyanophenoxy)piperidine-1-carbonyl)-N-(1-(4-(methylsulfonyl)benzyl)piperidin-4-yl)nicotinamide] is higher in EC50: 1000 to 5000 nM for the first, over 10000 nM for the second.

`N#Cc1ccc(CN2CCC(C(=O)Nc3ccc(C(=O)N4CCC(C(=O)c5ccc(F)cc5)CC4)cn3)CC2)cc1` [Compound 175, 1-(4-cyanobenzyl)-N-(5-(4-(4-fluorobenzoyl)piperidine-1-carbonyl)pyridin-2-yl)piperidine-4-carboxamide] and `CS(=O)(=O)c1ccc(OC2CCN(C(=O)c3ccc(C(=O)N[C@@H]4CCN(Cc5ccc(C#N)cc5)C[C@H]4F)nc3)CC2)cc1` (relative stereo) [Compound 254, N-((trans)-1-(4-cyanobenzyl)-3-fluoropiperidin-4-yl)-5-(4-(4-(methylsulfonyl)phenoxy)piperidine-1-carbonyl)picolinamide] cannot be ordered by EC50: under 500 nM for the first, under 500 nM for the second.

`CC(C)(C)OC(=O)N1CCC(NC(=O)c2ccc(C(=O)N3CCC(Oc4ccc(C#N)cc4)CC3)nc2)CC1` [Compound 333, tert-butyl 4-(6-(4-(4-cyanophenoxy)piperidine-1-carbonyl)nicotinamido)piperidine-1-carboxylate] and `COc1ccc(CN2CCC(NC(=O)c3ccc(C(=O)N4CCC(Oc5ccc(F)cc5F)CC4)nc3)CC2)cc1` [Compound 344, 6-(4-(2,4-difluorophenoxy)piperidine-1-carbonyl)-N-(1-(4-methoxybenzyl)piperidin-4-yl)nicotinamide] cannot be ordered by EC50: under 500 nM for the first, under 500 nM for the second.

`O=C(NC1CCN(Cc2ccc(OC(F)(F)F)cc2)CC1)c1ccc(C(=O)N2CCC(Oc3cccc(NC(=O)C4CC4)c3)CC2)nc1` [Compound 438, 6-(4-(3-(cyclopropanecarboxamido)phenoxy)piperidine-1-carbonyl)-N-(1-(4-(trifluoromethoxy)benzyl)piperidin-4-yl)nicotinamide] and `COc1ccc(C(=O)C2CCN(C(=O)c3ccc(C(=O)NC4CCN(Cc5cccc(OC(F)(F)F)c5)CC4)cn3)CC2)cc1` [Compound 424, 6-(4-(4-methoxybenzoyl)piperidine-1-carbonyl)-N-(1-(3-(trifluoromethoxy)benzyl)piperidin-4-yl)nicotinamide] cannot be ordered by EC50: under 500 nM for the first, under 500 nM for the second.

First: COc1ccc(C(=O)C2CCN(C(=O)c3ccc(C(=O)N[C@@H]4CCN(Cc5csc(C)n5)C[C@@H]4F)cn3)CC2)cc1 [Compound 427, N-((3S,4R)-3-fluoro-1-((2-methylthiazol-4-yl)methyl)piperidin-4-yl)-6-(4-(4-methoxybenzoyl)piperidine-1-carbonyl)nicotinamide]
Second: COc1ccc(C(=O)C2CCN(C(=O)c3ccc(C(=O)N[C@@H]4CCN(Cc5cc(C)on5)C[C@@H]4F)cn3)CC2)cc1 [Compound 426, N-((3S,4R)-3-fluoro-1-((5-methylisoxazol-3-yl)methyl)piperidin-4-yl)-6-(4-(4-methoxybenzoyl)piperidine-1-carbonyl)nicotinamide]
The EC50 of the first is higher: 1000 to 5000 nM for the first, under 500 nM for the second.

Compared with `N#Cc1ccc(-c2nnc3n2CCN(C(=O)c2ccc(C(=O)NC4CCN(Cc5cc(F)cc(F)c5)CC4)nc2)C3)cc1` [Compound 314, 5-(3-(4-cyanophenyl)-5,6,7,8-tetrahydro-[1,2,4]triazolo[4,3-a]pyrazine-7-carbonyl)-N-(1-(3,5-difluorobenzyl)piperidin-4-yl)picolinamide], `COc1cccc(OC2CCCN(C(=O)c3ccc(C(=O)NC4CCN(Cc5ccc(C#N)cc5)CC4)nc3)C2)c1` (stereo not drawn) [Compound 277, N-(1-(4-cyanobenzyl)piperidin-4-yl)-5-(3-(3-methoxyphenoxy)piperidine-1-carbonyl)picolinamide] is lower in EC50: over 10000 nM for the first, under 500 nM for the second. The second is the more potent here.

First: N#Cc1ccc(CN2CCC(NC(=O)c3ccc(C(=O)N4CC(Oc5ccc(C#N)cc5)C4)cn3)CC2)cc1 [Compound 209, N-(1-(4-cyanobenzyl)piperidin-4-yl)-5-(3-(4-cyanophenoxy)azetidine-1-carbonyl)picolinamide]
Second: N#Cc1ccc(CN2CCC(NC(=O)c3ccc(C(=O)NCCOc4ccc(F)cc4)cn3)CC2)cc1 [Compound 149, N2-(1-(4-cyanobenzyl)piperidin-4-yl)-N5-(2-(4-fluorophenoxy)ethyl)pyridine-2,5-dicarboxamide]
The EC50 of the first is lower: under 500 nM for the first, 500 to 1000 nM for the second. The first is the more potent here.

`N#Cc1ccc(CN2CCC(NC(=O)c3ccc(C(=O)N4CCC(Oc5ccc(SC(F)(F)F)cc5)CC4)nn3)CC2)cc1` [Compound 436, N-(1-(4-cyanobenzyl)piperidin-4-yl)-6-(4-(4-(trifluoromethylthio)phenoxy)piperidine-1-carbonyl)pyridazine-3-carboxamide] was tested, and the EC50 was under 500 nM.
